Measured values from patent US11649255B2, “Indazoles as hematopoietic progenitor kinase 1 (HPK1) inhibitors and methods using same” (1st Biotherapeutics, Inc., priority 2020, dated 2023).
Structures can show the parent of a compound that is named as a salt.

Target: recombinant human HPK1 (Homo sapiens (Human), UniProt Q92918)
Assay: HPK1 kinase assay (ADP-Glo)
Assay type: biochemical
Conditions: 25 μM ATP, MBP substrate
Summary of the method: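 Activity was read as ADP formed, detected by ADP-Glo luminescence after the reaction of 5 ng recombinant human HPK1 with MBP and ATP (stocks 0.5 μg/μl and 25 μM) for 40 min at 30 °C. Buffer was Tris pH 7.5 with MgCl2, BSA and DTT, with compound in 0.5% DMSO. IC50 came from inhibition curves.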

Chain of recombinant human HPK1 (Q92918 whole entry): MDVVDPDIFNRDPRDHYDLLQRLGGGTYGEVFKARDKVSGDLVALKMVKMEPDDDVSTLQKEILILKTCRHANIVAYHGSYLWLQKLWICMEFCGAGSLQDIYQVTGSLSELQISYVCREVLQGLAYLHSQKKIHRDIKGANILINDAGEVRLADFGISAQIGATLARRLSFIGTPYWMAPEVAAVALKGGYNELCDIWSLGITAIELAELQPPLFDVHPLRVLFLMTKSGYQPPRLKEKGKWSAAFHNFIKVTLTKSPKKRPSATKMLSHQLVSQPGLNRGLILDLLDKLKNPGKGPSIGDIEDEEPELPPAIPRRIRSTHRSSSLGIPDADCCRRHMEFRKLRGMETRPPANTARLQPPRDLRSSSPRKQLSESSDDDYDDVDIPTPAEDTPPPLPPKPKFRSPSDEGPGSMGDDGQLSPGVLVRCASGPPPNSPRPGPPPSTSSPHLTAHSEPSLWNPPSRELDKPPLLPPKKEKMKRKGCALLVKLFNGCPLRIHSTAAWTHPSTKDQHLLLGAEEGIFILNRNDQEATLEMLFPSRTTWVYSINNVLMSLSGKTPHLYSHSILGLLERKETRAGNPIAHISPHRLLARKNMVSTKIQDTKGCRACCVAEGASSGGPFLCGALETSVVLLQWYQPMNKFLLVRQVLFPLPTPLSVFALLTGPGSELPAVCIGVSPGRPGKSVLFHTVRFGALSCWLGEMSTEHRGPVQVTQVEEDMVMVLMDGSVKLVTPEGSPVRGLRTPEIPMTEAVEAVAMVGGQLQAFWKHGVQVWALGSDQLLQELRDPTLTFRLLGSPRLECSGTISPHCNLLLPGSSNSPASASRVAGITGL

| SMILES | IC50 |
| --- | --- |
| CNC1CCC(Nc2c(F)c(Cl)c(-c3ccn4nc(NC(=O)[C@@H]5C[C@@H]5F)cc4c3)c3cn[nH]c23)CC1 (stereo partly drawn) [Example 508, (1S,2S)-N-(5-(5-chloro-6-fluoro-7-((4-(methylamino)cyclohexyl)amino)-1H-indazol-4-yl)pyrazolo[1,5-a]pyridin-2-yl)-2-fluorocyclopropane-1-carboxamide] | < 100 nM |
| Nc1c(F)c(Cl)c(-c2ccn3nc(NC(=O)[C@@H]4C[C@@H]4F)cc3c2)c2cn[nH]c12 [Example 510, (1S,2S)-N-(5-(7-amino-5-chloro-6-fluoro-1H-indazol-4-yl)pyrazolo[1,5-a]pyridin-2-yl)-2-fluorocyclopropane-1-carboxamide] | < 100 nM |
| CCOc1cc(C)c(-c2ccn3nc(NC(=O)[C@@H]4C[C@@H]4F)cc3c2)c2cn[nH]c12 [Example 511, (1S,2S)-N-(5-(7-ethoxy-5-methyl-1H-indazol-4-yl)pyrazolo[1,5-a]pyridin-2-yl)-2-fluorocyclopropane-1-carboxamide] | < 100 nM |
| CN(C)C1CCC(Nc2c(F)c(Cl)c(-c3ccn4nc(NC(=O)[C@@H]5C[C@@H]5F)cc4c3)c3cn[nH]c23)CC1 (stereo partly drawn) [Example 512, (1S,2S)-N-(5-(5-chloro-7-((4-(dimethylamino)cyclohexyl)amino)-6-fluoro-1H-indazol-4-yl)pyrazolo[1,5-a]pyridin-2-yl)-2-fluorocyclopropane-1-carboxamide] | < 100 nM |
| CCc1c(F)c(SC)c2[nH]ncc2c1-c1ccn2nc(NC(=O)[C@@H]3C[C@@H]3F)cc2c1 [Example 513, (1S,2S)-N-(5-(5-ethyl-6-fluoro-7-(methylthio)-1H-indazol-4-yl)pyrazolo[1,5-a]pyridin-2-yl)-2-fluorocyclopropane-1-carboxamide dihydrochloride] | < 100 nM |
| CN(c1c(F)c(Cl)c(-c2ccn3nc(NC(=O)[C@@H]4C[C@@H]4F)cc3c2)c2cn[nH]c12)C1CCC(N)CC1 (some centres unmarked) [Example 514] | < 100 nM |
| NC1CCC(Nc2c(F)c(Cl)c(-c3ccn4nc(NC(=O)[C@@H]5C[C@@H]5F)cc4c3)c3cn[nH]c23)CC1 (stereo partly drawn) [Example 515, (1S,2S)-N-(5-(7-((4-aminocyclohexyl)amino)-5-chloro-6-fluoro-1H-indazol-4-yl)pyrazolo[1,5-a]pyridin-2-yl)-2-fluorocyclopropane-1-carboxamide] | < 100 nM |
| CC(C)(C)OC(=O)NC1CCC(Nc2c(F)c(Cl)c(-c3ccn4nc(NC(=O)[C@@H]5C[C@@H]5F)cc4c3)c3cn[nH]c23)CC1 (stereo partly drawn) [Example 516, tert-butyl (4-((5-chloro-6-fluoro-4-(2-((1S,2S)-2-fluorocyclopropane-1-carboxamido)pyrazolo[1,5-a]pyridin-5-yl)-1H-indazol-7-yl)amino)cyclohexyl)carbamate] | < 100 nM |
| O=C(Nc1cc2cc(-c3c(Cl)c(F)c(NC4CCC(O)CC4)c4[nH]ncc34)ccn2n1)[C@@H]1C[C@@H]1F (stereo partly drawn) [Example 517, (1S,2S)-N-(5-(5-chloro-6-fluoro-7-((4-hydroxycyclohexyl)amino)-1H-indazol-4-yl)pyrazolo[1,5-a]pyridin-2-yl)-2-fluorocyclopropane-1-carboxamide] | < 100 nM |
| CCc1c(F)c(N(CC)CC)c2[nH]ncc2c1-c1ccn2nc(NC(=O)[C@@H]3C[C@@H]3F)cc2c1 [Example 518, (1S,2S)-N-(5-(7-(diethylamino)-5-ethyl-6-fluoro-1H-indazol-4-yl)pyrazolo[1,5-a]pyridin-2-yl)-2-fluorocyclopropane-1-carboxamide] | < 100 nM |
| CCc1c(F)c(N(C)C)c2[nH]ncc2c1-c1ccn2nc(NC(=O)[C@@H]3C[C@@H]3F)cc2c1 [Example 519, (1S,2S)-N-(5-(7-(dimethylamino)-5-ethyl-6-fluoro-1H-indazol-4-yl)pyrazolo[1,5-a]pyridin-2-yl)-2-fluorocyclopropane-1-carboxamide] | < 100 nM |
| CCc1c(F)c(SCC(=O)N(C)C)c2[nH]ncc2c1-c1ccn2nc(NC(=O)[C@@H]3C[C@@H]3F)cc2c1 [Example 522] | < 100 nM |
| CCc1c(F)c(SCC(=O)O)c2[nH]ncc2c1-c1ccn2nc(NC(=O)[C@@H]3C[C@@H]3F)cc2c1 [Example 526, 2-((5-ethyl-6-fluoro-4-(2-((1S,2S)-2-fluorocyclopropane-1-carboxamido)pyrazolo[1,5-a]pyridin-5-yl)-1H-indazol-7-yl)thio)acetic acid] | < 100 nM |
| CN(c1c(F)c(Cl)c(-c2ccn3nc(NC(=O)[C@@H]4C[C@@H]4F)cc3c2)c2cn[nH]c12)C1CCC(N)C1 (stereo partly drawn) [Example 527, (1S,2S)-N-(5-(7-((3-aminocyclopentyl)(methyl)amino)-5-chloro-6-fluoro-1H-indazol-4-yl)pyrazolo[1,5-a]pyridin-2-yl)-2-fluorocyclopropane-1-carboxamide] | < 100 nM |
| O=C(Nc1cc2cc(-c3c(Cl)c(F)c(O)c4[nH]ncc34)ccn2n1)[C@@H]1C[C@@H]1F [Example 528, (1S,2S)-N-(5-(5-chloro-6-fluoro-7-hydroxy-1H-indazol-4-yl)pyrazolo[1,5-a]pyridin-2-yl)-2-fluorocyclopropane-1-carboxamide] | < 100 nM |
| Cc1c(F)c(OCCOC(N)=O)c2[nH]ncc2c1-c1ccn2nc(NC(=O)[C@@H]3C[C@@H]3F)cc2c1 [Example 535, 2-((6-fluoro-4-(2-((1S,2S)-2-fluorocyclopropane-1-carboxamido)pyrazolo[1,5-a]pyridin-5-yl)-5-methyl-1H-indazol-7-yl)oxy)ethyl carbamate] | < 100 nM |
| O=C(Nc1cc2cc(-c3c(Cl)c(F)c(F)c4[nH]ncc34)ccn2n1)[C@@H]1C[C@@H]1F [Example 536, (1S,2S)-N-(5-(5-chloro-6,7-difluoro-1H-indazol-4-yl)pyrazolo[1,5-a]pyridin-2-yl)-2-fluorocyclopropane-1-carboxamide] | < 100 nM |
| CC(=O)Nc1c(F)c(Cl)c(-c2ccn3nc(NC(=O)[C@@H]4C[C@@H]4F)cc3c2)c2cn[nH]c12 [Example 537, (1S,2S)-N-(5-(7-acetamido-5-chloro-6-fluoro-1H-indazol-4-yl)pyrazolo[1,5-a]pyridin-2-yl)-2-fluorocyclopropane-1-carboxamide] | < 100 nM |
| C[S+]([O-])c1c(F)c(Cl)c(-c2ccn3nc(NC(=O)[C@@H]4C[C@@H]4F)cc3c2)c2cn[nH]c12 (stereo partly drawn) [Example 538, (1S,2S)-N-(5-(5-chloro-6-fluoro-7-(methylsulfinyl)-1H-indazol-4-yl)pyrazolo[1,5-a]pyridin-2-yl)-2-fluorocyclopropane-1-carboxamide] | < 100 nM |
| Cc1c(F)c(OCCN(C)C(N)=O)c2[nH]ncc2c1-c1ccn2nc(NC(=O)[C@@H]3C[C@@H]3F)cc2c1 [Example 539, (1S,2S)-2-fluoro-N-(5-(6-fluoro-5-methyl-7-(2-(1-methylureido)ethoxy)-1H-indazol-4-yl)pyrazolo[1,5-a]pyridin-2-yl)cyclopropane-1-carboxamide] | < 100 nM |
| CN(Nc1c(F)c(Cl)c(-c2ccn3nc(NC(=O)[C@@H]4C[C@@H]4F)cc3c2)c2cn[nH]c12)C(=O)OC(C)(C)C [Example 542, tert-butyl 2-(5-chloro-6-fluoro-4-(2-((1S,2S)-2-fluorocyclopropane-1-carboxamido)pyrazolo[1,5-a]pyridin-5-yl)-1H-indazol-7-yl)-1-methylhydrazine-1-carboxylate] | < 100 nM |
| Cc1c(F)c(OCCNC(N)=O)c2[nH]ncc2c1-c1ccn2nc(NC(=O)[C@@H]3C[C@@H]3F)cc2c1 [Example 544, (1S,2S)-2-fluoro-N-(5-(6-fluoro-5-methyl-7-(2-ureidoethoxy)-1H-indazol-4-yl)pyrazolo[1,5-a]pyridin-2-yl)cyclopropane-1-carboxamide] | < 100 nM |
| CNC(=O)NCCOc1c(F)c(C)c(-c2ccn3nc(NC(=O)[C@@H]4C[C@@H]4F)cc3c2)c2cn[nH]c12 [Example 545, (1S,2S)-2-fluoro-N-(5-(6-fluoro-5-methyl-7-(2-(3-methylureido)ethoxy)-1H-indazol-4-yl)pyrazolo[1,5-a]pyridin-2-yl)cyclopropane-1-carboxamide] | < 100 nM |
| CNC(=O)OCCSc1c(F)c(C)c(-c2ccn3nc(NC(=O)[C@@H]4C[C@@H]4F)cc3c2)c2cn[nH]c12 [Example 546, 2-((6-fluoro-4-(2-((1S,2S)-2-fluorocyclopropane-1-carboxamido)pyrazolo[1,5-a]pyridin-5-yl)-5-methyl-1H-indazol-7-yl)thio)ethyl methylcarbamate] | < 100 nM |
| Cc1c(F)c(OCCNC(=O)C(F)(F)F)c2[nH]ncc2c1-c1ccn2nc(NC(=O)[C@@H]3C[C@@H]3F)cc2c1 [Example 547, (1S,2S)-2-fluoro-N-(5-(6-fluoro-5-methyl-7-(2-(2,2,2-trifluoroacetamido)ethoxy)-1H-indazol-4-yl)pyrazolo[1,5-a]pyridin-2-yl)cyclopropane-1-carboxamide] | < 100 nM |
| COC(=O)c1c(F)c(C)c(-c2ccn3nc(NC(=O)[C@@H]4C[C@@H]4F)cc3c2)c2cn[nH]c12 [Example 548, methyl 6-fluoro-4-(2-((1S,2S)-2-fluorocyclopropane-1-carboxamido)pyrazolo[1,5-a]pyridin-5-yl)-5-methyl-1H-indazole-7-carboxylate] | < 100 nM |
| Cc1c(F)c(C(=O)O)c2[nH]ncc2c1-c1ccn2nc(NC(=O)[C@@H]3C[C@@H]3F)cc2c1 [Example 549, 6-fluoro-4-(2-((1S,2S)-2-fluorocyclopropane-1-carboxamido)pyrazolo[1,5-a]pyridin-5-yl)-5-methyl-1H-indazole-7-carboxylic acid] | > 1000 nM |
| O=C(O)c1c(F)c(Cl)c(-c2ccn3nc(NC(=O)[C@@H]4C[C@@H]4F)cc3c2)c2cn[nH]c12 [Example 551, 5-chloro-6-fluoro-4-(2-((1S,2S)-2-fluorocyclopropane-1-carboxamido)pyrazolo[1,5-a]pyridin-5-yl)-1H-indazole-7-carboxylic acid] | > 1000 nM |
| CNNc1c(F)c(Cl)c(-c2ccn3nc(NC(=O)[C@@H]4C[C@@H]4F)cc3c2)c2cn[nH]c12 [Example 553, (1S,2S)-N-(5-(5-chloro-6-fluoro-7-(2-methylhydrazineyl)-1H-indazol-4-yl)pyrazolo[1,5-a]pyridin-2-yl)-2-fluorocyclopropane-1-carboxamide] | < 100 nM |
